# Reference: patent publication US10167257B2, “Indole derivatives for use in medicine” (IOmet Pharma Ltd., priority 2014, dated 2019)
# Legend:
# TDO (A172 cells) = biological target: T1, TDO (A172 cells) (Homo sapiens, UniProt P48775); assay: TDO cell-based assay (A172), kynurenine production; details: A172 human glioblastoma cells, 500 μM L-Trp, 48 h, kynurenine by absorbance at 490 nm
# T1 construct: This assay utilised cancer cells which expressed either TDO or IDO; host or cells: A172 human glioblastoma cells
# Excerpt: (§1) Two different types of assay were employed: 1. A TDO and IDO biochemical coupled assay which utilised recombinantly produced and purified TDO and IDO enzymes in combination with the enzyme formamidase. This coupled enzyme system allowed conversion of N-formylkynurenine produced by TDO or IDO activity to kynurenine which was then quantified by fluorescence following addition of Erhlich's Reagent. 2. A cell-based assay for detecting the effect of test compounds on kynurenine production in two different cancer cell types. This assay utilised cancer cells which expressed either TDO or IDO and as such was used as a means of testing compound activity at these two enzymes in a cell-based context. The protocols for these are set out below.
# (§2) A172 human glioblastoma (ATCC) were grown in DMEM+2 mM L-glutamine medium supplemented with 10% foetal bovine serum and SKOV-3 ovary adenocarcinoma (ATCC) cells were grown in McCoys 5A+L-glutamax medium supplemented with 15% foetal bovine serum. On the day of assay, cells were detached using trypsin-EDTA (0.25% v/v), re-suspended in assay media (RPMI 1640 phenol red free+L-glutamine supplemented with 10% dialysed foetal bovine serum). A172 cells were seeded at 30K cells per well and SKOV-3 cells at 40K cells per well into 96-well plates containing test samples/vehicle control together with 500 μM L-Trp. Cells were then incubated for 48 h at 37° C., 5% CO2. In SK-OV-3 cells, IFNγ was also added at 500 ng/ml for the 48 h incubation in order to induce expression of IDO. Plates were centrifuged and the supernatant was removed and incubated for 5 min in the presence of 1% Erhlich's reagent. Kynurenine levels were then quantified by measuring absorbance at 490 nm.
# IDO (SKOV-3 cells) = biological target: T2, IDO (SKOV-3 cells) (Homo sapiens, UniProt P14902); assay: IDO cell-based assay (SKOV-3, IFNγ-induced), kynurenine production; details: SKOV-3 ovary adenocarcinoma cells, IFNγ 500 ng/ml, 500 μM L-Trp, 48 h, kynurenine by absorbance at 490 nm
# T2 construct: This assay utilised cancer cells which expressed either TDO or IDO; host or cells: SKOV-3 ovary adenocarcinoma cells, IFNγ-induced
# Excerpt: as §1, §2
# T1 sequence (P48775 whole entry): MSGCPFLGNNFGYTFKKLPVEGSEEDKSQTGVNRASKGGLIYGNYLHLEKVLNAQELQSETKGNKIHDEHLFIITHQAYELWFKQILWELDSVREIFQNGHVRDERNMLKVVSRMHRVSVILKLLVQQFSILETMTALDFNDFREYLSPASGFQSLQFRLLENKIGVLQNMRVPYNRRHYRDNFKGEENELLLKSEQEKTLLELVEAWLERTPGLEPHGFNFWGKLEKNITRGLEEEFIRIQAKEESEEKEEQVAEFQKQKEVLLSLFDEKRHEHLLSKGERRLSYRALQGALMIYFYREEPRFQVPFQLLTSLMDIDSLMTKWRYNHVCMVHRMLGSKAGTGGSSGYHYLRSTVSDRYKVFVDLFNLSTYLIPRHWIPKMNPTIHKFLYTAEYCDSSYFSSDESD
# T2 sequence (P14902 whole entry): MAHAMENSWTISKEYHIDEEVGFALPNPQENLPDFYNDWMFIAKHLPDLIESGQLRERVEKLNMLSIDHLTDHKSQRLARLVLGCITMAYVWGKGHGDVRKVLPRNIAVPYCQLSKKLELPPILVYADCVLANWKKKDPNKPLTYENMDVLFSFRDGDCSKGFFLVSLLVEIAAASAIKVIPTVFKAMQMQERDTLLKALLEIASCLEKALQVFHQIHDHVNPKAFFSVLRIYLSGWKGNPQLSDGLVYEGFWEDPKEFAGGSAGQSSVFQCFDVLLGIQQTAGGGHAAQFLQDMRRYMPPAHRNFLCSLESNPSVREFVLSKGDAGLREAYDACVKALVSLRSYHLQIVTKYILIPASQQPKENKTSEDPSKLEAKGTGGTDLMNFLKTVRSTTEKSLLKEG
SMILES,TDO cellular assay (A172) pIC50 (TDO (A172 cells)),IDO cellular assay (SKOV3) pIC50 (IDO (SKOV-3 cells))
O=C(Nc1cccc2cnccc12)c1cc2ccc(F)cc2[nH]1 [Compound 2],− (− = pIC50 <4.50),++ (++ = pIC50 5.00-<5.50)
COc1ccc2cc(C(=O)Nc3cccc4ccccc34)[nH]c2c1 [Compound 3],− (− = pIC50 <4.50),+++ (+++ = pIC50 ≥5.50)
O=C(NCc1ccncc1)c1cc2cc(Cl)ccc2[nH]1 [Compound 5],− (− = pIC50 <4.50),+ (+ = pIC50 4.50-<5.00)
O=C(NC1CCc2ccccc21)c1cc2ccccc2[nH]1 (centres unmarked) [Compound 6],+ (+ = pIC50 4.50-<5.00),+ (+ = pIC50 4.50-<5.00)
COc1ccc2cc(C(=O)Nc3cccc4ncccc34)[nH]c2c1 [Compound 7],− (− = pIC50 <4.50),+++ (+++ = pIC50 ≥5.50)
CN(C)c1ncc2c(n1)CCC[C@H]2NC(=O)c1cc2cc(F)ccc2[nH]1 [Compound 8],− (− = pIC50 <4.50),+ (+ = pIC50 4.50-<5.00)
O=C(NCc1ccc(Cl)cc1)c1cc2ccccc2[nH]1 [Compound 9],− (− = pIC50 <4.50),+++ (+++ = pIC50 ≥5.50)
O=C(NCc1ccccc1)c1cc2ccccc2[nH]1 [Compound 10],+ (+ = pIC50 4.50-<5.00),− (− = pIC50 <4.50)
Cc1ccc(C(C)NC(=O)c2cc3ccccc3[nH]2)o1 (centres unmarked) [Compound 11],++ (++ = pIC50 5.00-<5.50),++ (++ = pIC50 5.00-<5.50)
O=C(NC(c1ccccc1)C1CC1)c1cc2c(F)cccc2[nH]1 (centres unmarked) [Compound 12],− (− = pIC50 <4.50),+++ (+++ = pIC50 ≥5.50)
O=C(NCc1cccs1)c1cc2ccccc2[nH]1 [Compound 13],− (− = pIC50 <4.50),+ (+ = pIC50 4.50-<5.00)
CC(NC(=O)c1cc2ccccc2[nH]1)c1ccc(Cl)cc1 (centres unmarked) [Compound 16],+ (+ = pIC50 4.50-<5.00),+++ (+++ = pIC50 ≥5.50)
COc1ccc(C(NC(=O)c2cc3ccccc3[nH]2)C2CC2)cc1 (centres unmarked) [Compound 18],− (− = pIC50 <4.50),+++ (+++ = pIC50 ≥5.50)
CC(NC(=O)c1cc2ccccc2[nH]1)c1ccc(C(F)(F)F)cc1 (centres unmarked) [Compound 19],− (− = pIC50 <4.50),+++ (+++ = pIC50 ≥5.50)
Cc1cc(C)c2cc(C(=O)NCc3ccc(C)n3C)[nH]c2c1 [Compound 20],− (− = pIC50 <4.50),+ (+ = pIC50 4.50-<5.00)
CC(NC(=O)c1cc2c(Cl)c(Cl)ccc2[nH]1)c1cccnc1 (centres unmarked) [Compound 21],− (− = pIC50 <4.50),++ (++ = pIC50 5.00-<5.50)
Cc1ccc2[nH]c(C(=O)NCc3ccc(F)cc3)cc2c1 [Compound 27],− (− = pIC50 <4.50),++ (++ = pIC50 5.00-<5.50)
O=C(NCc1ccc(F)cc1)c1cc2cc(Cl)ccc2[nH]1 [Compound 28],− (− = pIC50 <4.50),+ (+ = pIC50 4.50-<5.00)
COc1ccc(CNC(=O)c2cc3cc(F)ccc3[nH]2)cc1 [Compound 29],− (− = pIC50 <4.50),+ (+ = pIC50 4.50-<5.00)
O=C(NCc1cccc(Cl)c1)c1cc2ccccc2[nH]1 [Compound 30],− (− = pIC50 <4.50),+ (+ = pIC50 4.50-<5.00)
O=C(NCc1ccc(F)cc1Cl)c1cc2ccccc2[nH]1 [Compound 31],− (− = pIC50 <4.50),+ (+ = pIC50 4.50-<5.00)
O=C(NCc1ccc(F)c(Cl)c1)c1cc2ccccc2[nH]1 [Compound 32],− (− = pIC50 <4.50),++ (++ = pIC50 5.00-<5.50)
O=C(NCc1cccc(Cl)c1)c1cc2cc(Cl)ccc2[nH]1 [Compound 33],− (− = pIC50 <4.50),++ (++ = pIC50 5.00-<5.50)
O=C(NCc1ccc(Cl)cc1)c1cc2cc(Cl)ccc2[nH]1 [Compound 34],− (− = pIC50 <4.50),+++ (+++ = pIC50 ≥5.50)
O=C(NCc1ccc(F)c(Cl)c1)c1cc2cc(Cl)ccc2[nH]1 [Compound 35],− (− = pIC50 <4.50),+ (+ = pIC50 4.50-<5.00)
CC(NC(=O)c1cc2ccccc2[nH]1)c1ccccn1 (centres unmarked) [Compound 37],− (− = pIC50 <4.50),+ (+ = pIC50 4.50-<5.00)
Cc1c(C(=O)N[C@H](C)c2ccccc2)[nH]c2ccc(F)cc12 [Compound 38],+ (+ = pIC50 4.50-<5.00),++ (++ = pIC50 5.00-<5.50)
O=C(Nc1cccc2ncccc12)c1cc2cc(F)ccc2[nH]1 [Compound 41],− (− = pIC50 <4.50),+++ (+++ = pIC50 ≥5.50)
C[C@@H](NC(=O)c1cc2cc(F)ccc2n1C)c1ccccc1 [Compound 46],− (− = pIC50 <4.50),++ (++ = pIC50 5.00-<5.50)

# Results, then the molecule that gave them:
TDO cellular assay (A172) pIC50 (TDO (A172 cells)),IDO cellular assay (SKOV3) pIC50 (IDO (SKOV-3 cells)),SMILES
− (− = pIC50 <4.50),++ (++ = pIC50 5.00-<5.50),O=C(Nc1cccc2[nH]ncc12)c1cc2cc(F)ccc2[nH]1 [Compound 1]
+ (+ = pIC50 4.50-<5.00),++ (++ = pIC50 5.00-<5.50),CC(NC(=O)c1cc2cc(F)ccc2[nH]1)c1ccccc1 (centres unmarked) [Compound 4]
− (− = pIC50 <4.50),++ (++ = pIC50 5.00-<5.50),CC(NC(=O)c1cc2ccccc2[nH]1)c1cccc(Cl)c1 (centres unmarked) [Compound 14]
++ (++ = pIC50 5.00-<5.50),+++ (+++ = pIC50 ≥5.50),Cc1ccc2[nH]c(C(=O)NC(C)c3cccc(F)c3)cc2c1 (centres unmarked) [Compound 15]
+ (+ = pIC50 4.50-<5.00),+++ (+++ = pIC50 ≥5.50),CC(NC(=O)c1cc2ccccc2[nH]1)c1ccccc1 (centres unmarked) [Compound 17]
+ (+ = pIC50 4.50-<5.00),++ (++ = pIC50 5.00-<5.50),CC(NC(=O)c1cc2cc(F)ccc2[nH]1)c1cccc(F)c1 (centres unmarked) [Compound 22]
− (− = pIC50 <4.50),+++ (+++ = pIC50 ≥5.50),CC(C)C(NC(=O)c1cc2cc(F)ccc2[nH]1)c1cccs1 (centres unmarked) [Compound 23]
+ (+ = pIC50 4.50-<5.00),++ (++ = pIC50 5.00-<5.50),Cc1ccc(C(C)NC(=O)c2cc3cc(F)ccc3[nH]2)o1 (centres unmarked) [Compound 24]
+++ (+++ = pIC50 ≥5.50),+++ (+++ = pIC50 ≥5.50),CC(NC(=O)c1cc2cc(Cl)ccc2[nH]1)c1ccccc1 (centres unmarked) [Compound 25]
++ (++ = pIC50 5.00-<5.50),+++ (+++ = pIC50 ≥5.50),Cc1ccc2[nH]c(C(=O)NC(C)c3ccccc3)cc2c1 (centres unmarked) [Compound 26]
+ (+ = pIC50 4.50-<5.00),+++ (+++ = pIC50 ≥5.50),CC(NC(=O)c1cc2cc(Cl)ccc2[nH]1)c1ccc(F)cc1 (centres unmarked) [Compound 36]
− (− = pIC50 <4.50),++ (++ = pIC50 5.00-<5.50),C[C@H](c1ccccc1)N(C)C(=O)c1cc2cc(F)ccc2[nH]1 [Compound 39]
++ (++ = pIC50 5.00-<5.50),+ (+ = pIC50 4.50-<5.00),C[C@H](NC(=O)c1cc2cc(F)ccc2[nH]1)c1ccccc1 [Compound 40]
− (− = pIC50 <4.50),++ (++ = pIC50 5.00-<5.50),CC(NC(=O)c1cc2cc(F)ccc2[nH]1)c1ccccn1 (centres unmarked) [Compound 42]
++ (++ = pIC50 5.00-<5.50),+++ (+++ = pIC50 ≥5.50),C[C@@H](NC(=O)c1cc2cc(F)ccc2[nH]1)c1ccccc1 [Compound 43]
+ (+ = pIC50 4.50-<5.00),+++ (+++ = pIC50 ≥5.50),C[C@@H](NC(=O)c1cc2ccc(F)cc2[nH]1)c1ccccc1 [Compound 44]
− (− = pIC50 <4.50),+ (+ = pIC50 4.50-<5.00),C[C@H](NC(=O)c1cc2ccc(F)cc2[nH]1)c1ccccc1 [Compound 45]
